Data: article PMC9532951, “Identification and characterization of a novel SNAT2 (SLC38A2) inhibitor reveals synergy with glucose transport inhibition in cancer cells” (Frontiers in Pharmacology, 2022)
Values joined by “and” are separate entries in the source; they are usually repeats but may differ in a detail not shown here. Equal entries are not always repeated.

Columns and labels:
GLUT1 [1] = target: T1, GLUT1 (Homo sapiens, UniProt P11166); assay: [14C]glucose uptake in HPAFII cells; format: cell-based; design: endogenous in cells; host or cells: MDA-MB-231 (A17), HPAFII (A18), SKOV3 (A19)
T1 sequence (P11166 1-492): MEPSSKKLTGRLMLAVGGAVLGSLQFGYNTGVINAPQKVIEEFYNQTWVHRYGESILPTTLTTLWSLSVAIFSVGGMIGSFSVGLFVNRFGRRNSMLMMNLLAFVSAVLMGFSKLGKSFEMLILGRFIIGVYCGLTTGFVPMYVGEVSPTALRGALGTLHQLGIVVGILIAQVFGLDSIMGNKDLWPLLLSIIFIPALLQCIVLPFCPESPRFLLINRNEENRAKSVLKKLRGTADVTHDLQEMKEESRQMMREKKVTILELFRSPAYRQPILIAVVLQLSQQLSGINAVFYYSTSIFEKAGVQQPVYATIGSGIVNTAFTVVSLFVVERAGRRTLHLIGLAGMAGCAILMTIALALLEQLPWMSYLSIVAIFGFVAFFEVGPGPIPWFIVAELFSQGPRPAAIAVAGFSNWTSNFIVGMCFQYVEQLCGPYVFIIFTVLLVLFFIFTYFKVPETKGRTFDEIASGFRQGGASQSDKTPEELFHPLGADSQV
Procedure: (§1) […] Modified Hanks HEPES-buffered salts solution (mHBSS; 137 mM NaCl; 5.4 mM KCl; 2.7 mM K2HPO4; 1 mM CaCl2; 0.5 mM MgCl2; 0.44 mM KH2PO4; 0.4 mM MgSO4; 5 mM D-glucose; 5 mM HEPES; pH 7.4) was used to wash and incubate cells where sodium dependent transport was measured, while N-methyl-D-glucamine (NMDG) and potassium salts substituted sodium in NMDG mHBSS to measure sodium independent uptake. For the assay, cells were seeded in 35 mm dishes and, once confluent, […] of ≥2000 cpm/nmol ([…]). After 6 min, cells were washed thrice with ice-cold mHBSS, lysed with 500 µl of 0.1 M HCl, detached with a cell scraper and triturated. A 400 µl aliquot was used for scintillation counting, while the remainder was saved for protein mass quantification by Bradford assay. Transport rates were normalised to the protein content of the culture dish.

HCC1806 cells [2] = assay: Growth assay (IncuCyte confluence), HCC1806; format: cell-based, human; details: Bay876 alone
Procedure: (§2) Cells were seeded on 96-well flat bottom plates at approximately 3000 cells/well and incubated in growth medium (DMEM/F12 supplemented with 10% FBS, 2 mM glutamine) for 24 h. The next day, the growth medium was aspirated and exchanged with 300 μL/well of growth medium containing compounds at the indicated concentration. For live cell analysis, plates were placed in the IncuCyte system (Essen Bioscience), which was housed in a cell incubator (37°C, humidified atmosphere composed of 95% air and 5% CO2) and confluence measured at 6-h intervals or at the assay endpoint when untreated control cells reached a confluency >90%. Antibiotics (10 U/mL penicillin and 10 μg/ml streptomycin) were included in the treatment solutions.
(§3) Growth curves were generated using the Gompertz function of OriginPro software: y=ae^−e^(−k(x−xc))
(§4) Where a is the maximum confluence or upper asymptote, k is the growth rate coefficient, xc is the time point at which 50% confluence is reached (inflection point) and e is Euler’s number. Cell growth data are shown as % confluence.

HPAFII cells = assay: Growth assay (IncuCyte confluence), HPAFII; format: cell-based, human; design: key to Growth (Figure 6A) / cell confluence (Figure 6F): % confluence; details: Bay876 1uM, replicates 1-3
Procedure: as §2, §3, §4
(§5) Synergism between drug combinations was quantified using ZIP synergy scoring as calculated by SynergyFinder ([Yadav et al., 2015]).

GLUT1 [3] = target: T1, GLUT1; assay: [14C]glucose uptake in MDA-MB-231 cells; format: cell-based; design: endogenous in cells; host or cells: MDA-MB-231 (A17)
[4] = design: method as in Kopitz et al., 2016; details: mice, cancer therapeutic dose; ref Kopitz et al., 2016; cited from earlier work
HCC1806 cells [5] = assay: Glutamine in media supernatant by LC-MS (glutamine consumption); format: cell-based, human; details: Bay-876 1 μM
Procedure: Amino acids were analyzed with an Orbitrap Q-Exactive Plus coupled to an UltiMate 3000 RSLCnano system (Thermo Fisher) as described previously ([Gauthier-Coles et al., 2021]).

MDA-MB-231 cells = assay: Growth assay (IncuCyte confluence), MDA-MB-231; format: cell-based, human; design: key to Growth (Figure 6A) / cell confluence (Figure 6F): % confluence; details: MDA-MB-231; Bay876 1uM; replicates 1-3
Procedure: as §2, §3, §4, §5

GLUT1 [6] = target: T1, GLUT1; assay: [14C]glucose uptake in SKOV3 cells; format: cell-based; design: endogenous in cells; host or cells: SKOV3 (A19)
Procedure: as §1

HCC1806 cells [7] = assay: Assay of glycolytic activity (extracellular lactate); format: cell-based, human; details: > 0.1 μM Bay-876
Procedure: Glycolytic activity was measured by detecting extracellular lactate levels over a 48-h time course. HCC1806 and HPAFII cells were seeded on a 24-well plate at approximately 500,000 and 700,000 cells/well, respectively, and incubated in growth medium overnight. The following day, the growth medium was aspirated and each well was washed once with growth medium and 1.3 ml of the treatment solution was added to begin the time-course. In addition to sampling the medium at the start of the experiment, 50 μL was collected from each well at the following time points: 9, 24 and 48 h. Samples were stored at −20°C until further use. Lactate was detected by an enzymatic assay, which consisted of combining in microcentrifuge tubes: 5 μl of sample, 45 μl of water; 25 μl of 40 mM NAD^+; 421 μl of buffer (1M glycine, 600 mM hydrazine sulfate, 5.6 mM EDTA; adjusted to pH 9.5 with sodium hydroxide); and 4 μL of L-lactate dehydrogenase solved at 300U/mL (3.33 mg/ml). The tubes were briefly vortexed and incubated for 15 min before transferring 200 μL of the mixture to a 96-well plate. The calibration curve spanned final concentrations from 5 to 500 μM. Absorbance was measured at 340 nm to detect NADH. Lactate production was normalised to total cellular protein per well as measured by the Bradford assay.

SKOV3 xenografts = system: SKOV3 xenografts; design: method as in Ma et al., 2018; details: mice, ref Ma et al., 2018, cited from earlier work
B0AT1 (SLC6A19) = target: T2, B0AT1 (SLC6A19) (Homo sapiens, UniProt Q695T7); assay: Leucine uptake in CHO cells stably expressing human B0AT1 and collectrin; format: cell-based; details: 150 µM leucine, hit compounds at 30 µM, n = 3
T2 construct: expressed in transfected cells
T2 sequence (Q695T7 1-634): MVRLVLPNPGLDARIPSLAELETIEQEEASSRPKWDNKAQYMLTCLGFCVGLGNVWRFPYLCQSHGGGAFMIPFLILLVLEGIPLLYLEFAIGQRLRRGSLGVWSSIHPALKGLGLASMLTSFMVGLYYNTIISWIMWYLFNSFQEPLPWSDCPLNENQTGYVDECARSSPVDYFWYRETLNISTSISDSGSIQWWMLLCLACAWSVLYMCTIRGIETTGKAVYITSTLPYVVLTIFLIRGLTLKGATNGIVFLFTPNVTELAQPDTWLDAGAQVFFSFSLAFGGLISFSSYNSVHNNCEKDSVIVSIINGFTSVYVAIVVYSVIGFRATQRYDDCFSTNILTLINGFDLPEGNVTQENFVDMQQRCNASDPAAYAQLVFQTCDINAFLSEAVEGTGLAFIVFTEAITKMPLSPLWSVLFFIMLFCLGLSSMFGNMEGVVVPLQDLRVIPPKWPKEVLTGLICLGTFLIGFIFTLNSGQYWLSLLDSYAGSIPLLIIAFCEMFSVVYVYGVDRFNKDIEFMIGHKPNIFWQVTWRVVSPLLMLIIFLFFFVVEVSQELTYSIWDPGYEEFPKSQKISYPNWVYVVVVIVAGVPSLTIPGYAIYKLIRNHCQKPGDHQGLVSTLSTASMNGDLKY
T2 sequence (Q9HBJ8 15-222 partner): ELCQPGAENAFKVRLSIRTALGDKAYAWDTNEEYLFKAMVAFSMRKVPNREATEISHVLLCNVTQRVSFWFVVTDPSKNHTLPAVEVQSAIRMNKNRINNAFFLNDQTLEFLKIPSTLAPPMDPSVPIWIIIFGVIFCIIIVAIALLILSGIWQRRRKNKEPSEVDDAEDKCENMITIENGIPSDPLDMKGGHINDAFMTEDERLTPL

Row | Leucine uptake, Mean (B0AT1 (SLC6A19)) [nmol / mg protein x 6 min] | Compound | inhibition of glucose uptake (GLUT1 [1]; 1 µM, 100 µM glucose) | Glucose uptake (nmol / mg protein x 6 min) (GLUT1 [1]; HPAFII, 1uM) | growth of HCC1806 cells (HCC1806 cells [2]) | cell confluence (Figure 6F) (HPAFII cells) | inhibition of glucose uptake (GLUT1 [3]; 1 µM, 100 µM glucose) | Glucose uptake (nmol / mg protein x 6 min) (GLUT1 [3]; MDA-MB-231, 1uM) | oral availability and tolerability [4] | glutamine consumption (HCC1806 cells [5]) | cell confluence (Figure 6F) (MDA-MB-231 cells) | inhibition of glucose uptake (GLUT1 [6]; 1 µM, 100 µM glucose) | Glucose uptake (nmol / mg protein x 6 min) (GLUT1 [6]; SKOV3, 1uM) | lactate production (HCC1806 cells [7]) | lethality (SKOV3 xenografts; dose raised from 4.0 mg/kg/day to 7.5 mg/kg/day, 18-days treatment) | body weight (SKOV3 xenografts) | tumour growth (SKOV3 xenografts)
1 | – | Cc1c(NC(=O)c2cc(C(N)=O)nc3cc(F)ccc23)c(C(F)(F)F)nn1Cc1ccc(C#N)cc1 [Bay-876] | inhibited glucose uptake to comparable levels as 2-DG | 2.423 nmol / mg protein x 6 min and 2.258 nmol / mg protein x 6 min and 2.749 nmol / mg protein x 6 min | quite sensitive | 97.55 and 97.2 and 90.5 | inhibited glucose uptake to comparable levels as 2-DG | 4.491 nmol / mg protein x 6 min and 4.087 nmol / mg protein x 6 min and 3.799 nmol / mg protein x 6 min | orally available and tolerated in mice | accelerated | 97.85 and 98.65 and 98.1 | inhibited glucose uptake to comparable levels as 2-DG | 2.054 nmol / mg protein x 6 min and 1.028 nmol / mg protein x 6 min and 1.361 nmol / mg protein x 6 min | blocked completely | caused the death of all animals | did not reduce body weight | reduced the growth of SKOV3 xenografts
2 | 19.8324 | CCNC(=O)/C=C/c1cccc(Br)c1 [Cinromide] | – | – | – | – | – | – | – | – | – | – | – | – | – | – | –
